Data: patent US10765631B2, “Liposomes for modulating Wiskott-Aldrich syndrome protein” (BAR-ILAN UNIVERSITY, priority 2013, dated 2020)

T1: WASp (Homo sapiens, UniProt P42768)
T1 construct: expressed in transfected cells; host or cells: 293T cells, calcium-phosphate transfection
T1 sequence (P42768 1-502): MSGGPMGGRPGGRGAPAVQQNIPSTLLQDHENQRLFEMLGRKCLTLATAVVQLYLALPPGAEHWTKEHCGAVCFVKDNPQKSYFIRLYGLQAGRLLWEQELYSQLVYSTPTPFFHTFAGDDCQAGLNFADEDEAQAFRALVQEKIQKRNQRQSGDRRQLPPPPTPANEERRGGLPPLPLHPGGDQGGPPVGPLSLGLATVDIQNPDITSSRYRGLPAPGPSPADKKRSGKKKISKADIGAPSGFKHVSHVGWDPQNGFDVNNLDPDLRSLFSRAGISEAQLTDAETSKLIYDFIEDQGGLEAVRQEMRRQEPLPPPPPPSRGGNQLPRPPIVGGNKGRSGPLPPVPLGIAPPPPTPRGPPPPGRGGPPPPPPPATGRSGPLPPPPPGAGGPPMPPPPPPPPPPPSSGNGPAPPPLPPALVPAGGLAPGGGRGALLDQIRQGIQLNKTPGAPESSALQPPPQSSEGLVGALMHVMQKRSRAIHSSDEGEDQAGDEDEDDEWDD


Legend:
[1] = target: T1, WASp; assay: YFP-WASp expression in 293T cells treated with compounds, densitometric Western blot analysis; assay type: cell-based; conditions: for effect on WASp expression in cells: 293T cells transfected with YFP-WASp; for Relative expression: YFP-WASp expression in transfected 293T cells relative to DMSO solvent control, compound 10-80 μM, overnight
Description: Compounds were obtained and from ChemBridge Corporation. San Diego, Calif., USA. Of the compounds obtained, 14 were considered potential agents for modulating WASp expression, by their potential to bind to WASp. The 14 compounds were tested in 293T cells using the following procedure.
The compounds were individually dissolved in DMSO to make a stock solution of 20 millimolar (mM) and kept stored at −20° C. 293T cells were prepared to mid log phase, ˜60-80% confluence, and were transfected with 15 μg of yellow-fluorescent protein, YFP-WASp plasmid (6023), using a Calcium-phosphate transfection protocol. Cells were collected and counted. 1-2×10^6 cells per sample in 6-well supplemented with 2-4 ml complete (10% FCS) DMEM medium (0.5×10^6 cells/ml). Cells were plated in 6 wells (0.5×10^6 cells/ml×Number of samples) and pre-incubate at 37°, 5% CO2 for at least 4 h (for the cells to adhere. 1 ml of the medium in which the cells were grown is taken, and added to the compound (10-80 μM). The medium, with the compound, was added back to the cells in the plate, drop-wise. Cells were incubated overnight at 37° C., 5% CO2. Densitometric analysis of YFP-WASp expression in the cells treated with the compounds, using Western blot analysis. The compounds with a relative 1.5-fold change (either increase or decrease) of expression relative cells which were exposed to DMSO solvent control, are listed in table 2 below. Table 2 lists the compounds' modulation of WASp expression levels as a function of relative expression of WASp in relation to control.

[2] = tested on: WASp; assay: WASp gene silencing by siRNA in T cell leukemic cells, Western blot; assay type: cell-based
Description: As shown in the previous examples, WASp is overexpressed in malignant cells. Gene silencing of WASp expression using siRNA was tested. WASp was silenced using commercially available siRNA oligonucleotides. A mixture of the following oligonucleotides, each in the form of double-stranted siRNA duplex with its corresponding sequence at an amount of 500 pico-mole was introduced to 1×10^7 cells:
These experiments were performed in T cell leukemic cells. Silencing efficiency of about 90% was achieved 48 hours after transfection, when compared to non-specific (N.S) siRNA-treated cells.
A number of siRNA duplexes were tested in cells as in example 1E. The following double-stranded siRNA sequences were used: SEQ ID NO. 1 and its complementary sequence; SEQ ID NO. 2 and its complementary sequence; SEQ ID NO. 3 and its complementary sequence; SEQ ID NO. […] and its complementary sequence (designated as 1-4). 500 picomole of each double-stranded siRNA was used. In addition, a nonsense siRNA sequence (designated as “N.S. siRNA”) was used as a control. Control N.S. siRNA was made from 125 duplexes of each of the siRNA molecules in Table 5:
In addition, a mixture of the siRNAs comprising SEQ ID NOS. 1-4 (designated as “Mix”) was also used, comprising 125 picomole of each. Upon analysis with Western blot, it was shown that all siRNA duplexes were effective in downregulating WASp, with the siRNA of SEQ. ID NO.

Molecule	effect on WASp expression in cells [1]	Relative expression [1]	downregulating WASp ([2]; Western blot, 500 picomole double-stranded siRNA, cells as in example 1E, FIG. 2)	Silencing efficiency ([2]; 48 hours after transfection, T cell leukemic cells, 500 pico-mole to 1×10^7 cells, compared to non-specific (N.S) siRNA-treated cells)
COCC1CCN(c2ccc(C(=O)N3CCC(N4CCOCC4)CC3)cn2)C1 (centres unmarked) [Compound 4, 4-[1-({6-[3-(methoxymethyl)pyrrolidin-1-yl]pyridin-3-yl}carbonyl)piperi-din-4-yl]morpholine]	increase WASp expression	1.5	–	–
COc1ccc(CN2C(=O)N(CC(C)C)C3(CCN(C4Cc5ccccc5C4)CC3)C2=O)cc1 [Compound 13, 8-(2,3-dihydro-1H-inden-2-yl)-1-isobutyl-3-(4-methoxy-benzyl)-1,3,8-triazaspiro[4.5] decane-2,4-dione]	effective in decreasing WASp expression	0.3	–	–
N.S. siRNA: nonsense siRNA control made from duplexes of SEQ ID NO. 9-12 (Table 5) (nucleic acid, listed as RNA, chemistry not given here) chain 1: UAGCGACUAAACACAUCAAUAGGCUAUGAAGAGAUAC chain 2: AUGUAUUGGCCUGUAUUAG chain 3: AUGAACGUGAAUUGCUCAA chain 4: UGGUUUACAUGUCGACUAA	–	–	ineffective in downregulating WASp	–
Mix: mixture of the double-stranded siRNA duplexes of SEQ ID NOS. 1-4 (nucleic acid, listed as RNA, chemistry not given here) chain 1: UGACUGAGUGGCUGAGUUA chain 2: GACCUAGCCCAGCUGAUAA chain 3: GAAUGGAUUUGACGUGAAC chain 4: GCCGAGACCUCUAAACUUA	–	–	–	about 90%

Continued, in another order:

effect on WASp expression in cells [1]	Relative expression [1]	Molecule	downregulating WASp ([2]; Western blot, 500 picomole double-stranded siRNA, cells as in example 1E, FIG. 2)	Silencing efficiency ([2]; 48 hours after transfection, T cell leukemic cells, 500 pico-mole to 1×10^7 cells, compared to non-specific (N.S) siRNA-treated cells)
increase WASp expression	6.7	CC(=O)N[C@H]1C[C@@H](c2ccc3c(c2)nnn3C)O[C@@H](c2ccc(Cl)cc2)C1 [Compound 6, N-[(2R,4R,6S)-2-(4-chloro-phenyl)-6-(1-methyl-1H-1,2,3-benzotriazol-5-yl)tetrahydro-2H-pyran-4-yl]acetamide]	–	–
increase WASp expression	2.1	Cc1cc(C)n(C2CCN(C(=O)c3cc(COc4ccccc4)[nH]n3)C2)n1 (centres unmarked) [Compound 7, 3,5-dimethyl-1-(1-{[5-(phenoxy-methyl)-1H-pyrazol-3-yl]carbonyl}pyrrolidin-3-yl)-1H-pyrazole]	–	–
effective in decreasing WASp expression	0.6	CC(C)c1n[nH]c2c1CN(C(=O)c1cccc(C#CC(C)(C)O)c1)CC2 [Compound 10, 4-{3-[(3-isopropyl-1,4,6,7-tetrahydro-5H-pyrazolo[4,3-c]pyridin-5-yl)carbonyl]phenyl}-2-methylbut-3-yn-2-ol]	–	–
effective in decreasing WASp expression	0.5	COc1ccccc1-c1cccc(C(=O)NC(C)Cc2ccccn2)c1 (centres unmarked) [Compound 14, 2′-methoxy-N-(1-methyl-2-pyridin-2-ylethyl)biphenyl-3-carboxamide]	–	–
